{
  "source": "patent US7355074B2",
  "about": "“Compounds having aromatic rings and side-chain amide-functionality and a method for transporting monovalent anions across biological membranes using the same” (The University of Maryland, priority 2003, dated 2008)",
  "key": {"[1]": {"test": "pH changes in liposomes experiencing a Cl- gradient (oligophenoxyacetamides)", "type": "biochemical", "experimental": "FIG. 2B illustrates alkanization of the vesicular aqueous compartment upon application of compounds 1-6 to a suspension of NaCl-containing vesicles in isosmomolar Na2SO4 buffer. Concentration of compounds 1-6 in the vesicular suspension was 20 μm (4 mol %). Legend for traces denotes use of oligocompounds 1, 2, 3, 4, 5, 6.\nLiposome Preparation for Fluorimetric Assays. Egg yolk L-α-phosphatidylcholine (EYPC ethanol solution, […], 79 μmol) was dissolved in a CHCl3/MeOH mixture, the solution was evaporated under reduced pressure and the resulting thin film was dried under high vacuum for 2 h. The lipid film was hydrated in 1.2 mL of phosphate buffer (10 mM sodium phosphate, pH=6.4, 75-100 mM MnX, M=N^+, K^+, X=Cl^−, SO4^2−, n=1,2) containing 10 μM HPTS (pyranine, 8-hydroxypyrene-1,3,6-trisulfonic acid trisodium salt) for 40 min. During hydration, the suspension was submitted to 5 freeze-thaw cycle (liquid nitrogen, water at rt). The large multilamellar liposome suspension (1 mL) was submitted to high-pressure extrusion at rt (21 extrusions through a 0.1 μm polycarbonate membrane afforded a suspension of LUVs with an average diameter of 100 nm). The LUV suspension was separated from extravesicular dye by size exclusion chromatography (SEC) (stationary phase: Sephadex G-10, mobile phase: phosphate buffer) and diluted with the same phosphate buffer to give a stock solution with a lipid concentration of 11 mM (assuming 100% of lipid was incorporated into liposomes).\nAnalysis of pH changes in the liposomes experiencing a CT gradient. a) Outwardly directed gradient of Cl:HPTS-loaded vesicles (100 μL of the stock solution), filled with a saline phosphate buffer (10 mM sodium phosphate, pH 6.4, 100 mM NaCl) were suspended in 1.9 mL of an isosmotic phosphate sulfate buffer (10 mM sodium phosphate, pH 6.0, 75 mM Na2SO4) and placed into a fluorimetric cell. The emission of HPTS at 510 nm was monitored with excitation wavelengths at 403 and 460 nm simultaneously. During the experiment, 20 μL of a 0-2 mM DMSO solution of the compound of interest was added through an injection port. Intravesicular pH values were obtained as described for pH-stat transport assays. At the end of experiment, the aqueous compartment of liposomes was equilibrated with extravesicular solution by lysis of liposomes with detergent (40 μL of 5% aqueous Triton X100). b) Inwardly directed gradient of Cl:HPTS-loaded vesicles (100 μL of the stock solution), filled with a isoosimomolar sulfate phosphate buffer (10 mM sodium phosphate, pH 6.0, 75 mM Na2SO4) were suspended in 1.9 mL of an isosmotic phosphate saline buffer (10 mM sodium phosphate, pH 6.4, 100 mM NaCl) and placed into a fluorimetric cell. Further analysis was conducted as described for the case of an outwardly directed gradient of […]. Analysis of the electrostatic potential on the surface of liposomes. LUVs (100 μL of stock solution, 100 mM KCl inside and outside or 75 mM Na2SO4 inside and outside) were suspended in 1.9 mL of 100 mM NaCl buffer containing 60 nM safranin O (a potential-sensitive dye). Safranin O emission was monitored at 580 nm with excitation at 520 nm. During the course of the experiment, 20 μL of a 0-0.12 mM DMSO solution of valinomycin or 0-2 mM of 3-8 DMSO solution was added. Experiments were completed by injection of 20 μL of 1 mM aqueous solution of the defect-inductive peptide melittin."}, "35Cl NMR transport assay": {"test": "35Cl NMR transport assay", "type": "biochemical", "conditions": "vesicles with NaCl and Co2+ inside, Co2+-free Na2SO4 buffer outside; 2 mol %", "experimental": "FIG. 2A illustrates ^35Cl NMR spectra of a suspension of giant vesicles (29 mM EYPC, 100 mM NaCl, 10 mM CoCl2, 10 mM NanH3-nPO4, n=1, 2 pH 5.3) suspended in 75 mM […] buffer (NanH3-nPO4, n=1, 2, pH spectra correspond to a) giant vesicles in the absence of 3, b) giant vesicles after application of 2 mol % 3 in DMSO, c) vesicles after lysis with Triton X-100.\nLiposome Preparation for ^35Cl NMR Assays. Egg yolk L-α-phosphatidylcholine (1.0 mg/mL EYPC ethanol solution, 250 μL, […]) was dissolved in a CHCl3/MeOH mixture, the solution was evaporated under reduced pressure and the resulting thin film was dried under high vacuum for 2.5 h. The lipid film was hydrated in 1.0 mL of phosphate buffer (9:1 H2O:D2O, 10 mM sodium phosphate, pH=5.4, 100 mM NaCl) containing 10 mM CoCl2 (^35Cl shift reagent) for 40 min. During hydration, the suspension was submitted to 5 freeze-thaw cycles (liquid nitrogen, water at rt). The giant liposome suspension (1 mL) was submitted to high-pressure extrusion at rt (41 passes through a 5.0 μm polycarbonate membrane). […]\n^35Cl NMR Measurements. All ^35Cl NMR spectra were recorded on a Bruker DRX500 instrument operating at 49.0023 MHz for the ^35Cl resonance and chemical shift values are reported in ppm relative to 25 mM NaCl in D2O at 0 ppm (external standard). […]"}, "[2]": {"conditions": "4 mol %, NaCl-loaded liposomes in Na2SO4 buffer"}},
  "data": [
    {"smiles": "CCCCNC(=O)COc1ccccc1Cc1cccc(Cc2ccccc2OCC(=O)NCCCC)c1OCC(=O)NCCCC", "note": "[trimer 3, Tris-(N-butyl-2-phenoxyacetamide)]", "values": [
      {"measurement": "pH gradient generated", "setting": "[1]; [2]", "value": "approximately are pH unit"},
      {"measurement": "time to reach the pH gradient", "setting": "[1]; [2]", "value": "≤ 1.5", "unit": "minutes"},
      {"measurement": "time the pH gradient remained stable", "setting": "[1]; 4 mol %, until the liposomes were lysed", "value": 5, "unit": "minutes"},
      {"measurement": "relative ability to alter the pH in liposomes under a Cl− gradient", "setting": "[1]; NaCl-loaded liposomes in Na2SO4 buffer", "value": "most active compound in the series tested"},
      {"measurement": "transport under inwardly directed Cl− gradient", "setting": "[1]; sulfate-loaded liposomes suspended in Cl− buffer", "value": "transports both Cl^− and H^+ into sulfate-loaded liposomes"},
      {"measurement": "outward Cl− transport (35Cl NMR signal)", "setting": "35Cl NMR transport assay", "value": "enhancement of the extravesicular Cl^− peak"}
    ]}
  ]
}
